# Assay results taken from ChEMBL document CHEMBL1124186, “Synthesis and evaluation of tylosin-related macrolides modified at the aldehyde function: a new series of orally effective antibiotics” (1988).
# Columns and labels:
# [1] = tested on: Fusobacterium; test: In vitro antimicrobial activity against anaerobic bacteria fusobacterium symbiosum 1470; format: functional
# [2] = tested on: Staphylococcus aureus; test: In vitro antimicrobial activity against aerobic bacteria Staphylococcus aureus V135; format: functional
# [3] = tested on: Streptococcus pneumoniae; test: In vitro antimicrobial activity against aerobic bacteria Streptococcus pneumoniae B1-438; format: functional, streptococcus pneum
# [4] = tested on: Eikenella corrodens; test: In vitro antimicrobial activity against anaerobic bacteria bacteroides corrodens 1874; format: functional
# [5] = tested on: Staphylococcus aureus; test: In vivo effective dose against experimental infections in mice Staphylococcus aureus X1 when administered sc; format: functional
# [6] = tested on: Fusobacterium necrophorum; test: In vitro antimicrobial activity against anaerobic bacteria usobacterium necrophorum 6054A; format: functional
# [7] = tested on: Staphylococcus aureus; test: In vitro antimicrobial activity against aerobic bacteria Staphylococcus aureus 513E; format: functional
# [8] = tested on: Staphylococcus aureus; test: In vitro antimicrobial activity against Staphylococcus aureus X1; format: functional
# [9] = tested on: Streptococcus; test: In vitro antimicrobial activity against aerobic bacteria Streptococcus C 24; format: functional
# [10] = tested on: Haemophilus influenzae; test: In vitro antimicrobial activity against aerobic bacteria Haemophilus influenzae 76; format: functional
# [11] = tested on: Streptococcus; test: In vitro antimicrobial activity against aerobic bacteria Streptococcus D 9960; format: functional
# [12] = tested on: Streptococcus sanguinis; test: In vitro antimicrobial activity against aerobic bacteria Streptococcus sanguis MX132; format: functional
# [13] = tested on: Bacteroides fragilis; test: In vitro antimicrobial activity against anaerobic bacteria bacteroides fragilis 1877; format: functional
# [14] = tested on: Streptococcus; test: In vitro antimicrobial activity against aerobic bacteria Streptococcus G Kruder; format: functional; details: Streptococcus; read-out: MIC
# [15] = tested on: Prevotella melaninogenica; test: In vitro antimicrobial activity against anaerobic bacteria bacteroides melaninogenicus 2736; format: functional
# [16] = tested on: Staphylococcus aureus; test: In vitro antimicrobial activity against aerobic bacteria Staphylococcus aureus V41; format: functional
# [17] = tested on: Streptococcus; test: In vitro antimicrobial activity against aerobic bacteria Streptococcus D 2041; format: functional
# [18] = tested on: Clostridium perfringens; test: In vitro antimicrobial activity against anaerobic bacteria clostridium perfringens 81,; format: functional
# [19] = tested on: Streptococcus pyogenes; test: In vitro antimicrobial activity against Streptococcus pyogenes C203; format: functional
# [20] = tested on: Chlamydia trachomatis; test: In vitro antimicrobial activity against chlamydia trachomatis.; format: functional
# [21] = tested on: Streptococcus; test: In vitro antimicrobial activity against aerobic bacteria Streptococcus B 8; format: functional
# [22] = tested on: Peptoniphilus asaccharolyticus; test: In vitro antimicrobial activity against anaerobic bacteria peptococcus asaccharolyticus 1302; format: functional
# [23] = tested on: Phocaeicola vulgatus; test: In vitro antimicrobial activity against anaerobic bacteria bacteroides vulgatus 1211; format: functional
# [24] = tested on: Streptococcus viridans; test: In vitro antimicrobial activity against aerobic bacteria Streptococcus viridans 9943; format: functional
# [25] = tested on: Streptococcus; test: In vitro antimicrobial activity against aerobic bacteria Streptococcus B 14; format: functional
# [26] = tested on: Enterococcus faecium; test: In vitro antimicrobial activity against Streptococcus faecium X66; format: functional, streptococcus fae-cium
# [27] = tested on: Prevotella melaninogenica; test: In vitro antimicrobial activity against anaerobic bacteria bacteroides melaninogenicus 1856,; format: functional
# [28] = tested on: Staphylococcus aureus; test: In vitro antimicrobial activity against aerobic bacteria Staphylococcus aureus V140,; format: functional
# [29] = tested on: Collinsella aerofaciens; test: In vitro antimicrobial activity against anaerobic bacteria eubacterium aerofaciens 1235; format: functional
# [30] = In vitro antimicrobial activity against anaerobic bacteria peptostreptococcus intermedius 1264; format: functional
# [31] = tested on: Anaerococcus prevotii; test: In vitro antimicrobial activity against anaerobic bacteria peptococcus prevoti 1281; format: functional
# [32] = tested on: Peptostreptococcus anaerobius; test: In vitro antimicrobial activity against anaerobic bacteria eubacterium peptostreptococcus anaerobius 1428,; format: functional
# [33] = tested on: Haemophilus influenzae; test: In vitro antimicrobial activity against aerobic bacteria Haemophilus influenzae MX366; format: functional
# [34] = tested on: Bacteroides fragilis; test: In vitro antimicrobial activity against anaerobic bacteria bacteroides fragilis 111; format: functional
# [35] = tested on: Staphylococcus aureus; test: In vitro antimicrobial activity against aerobic bacteria Staphylococcus aureus X400; format: functional
# [36] = tested on: Bacteroides fragilis; test: In vitro antimicrobial activity against anaerobic bacteria bacteroides fragilis 1936B,; format: functional
# [37] = tested on: Streptococcus pneumoniae; test: In vitro antimicrobial activity against Streptococcus pneumoniae; format: functional
# [38] = tested on: Staphylococcus epidermidis; test: In vitro antimicrobial activity against aerobic bacteria Streptococcus epi 222; format: functional
# [39] = tested on: Haemophilus influenzae; test: In vitro antimicrobial activity against Haemophilus influenzae.; format: functional
# [40] = tested on: Staphylococcus epidermidis; test: In vitro antimicrobial activity against Staphylococcus epidermidis EPI1; format: functional
# [41] = tested on: Clostridium septicum; test: In vitro antimicrobial activity against anaerobic bacteria clostridium septicum 1128; format: functional
# [42] = tested on: Cutibacterium acnes; test: In vitro antimicrobial activity against anaerobic bacteria propionibacterium acnes 79; format: functional
# [43] = tested on: Streptococcus pneumoniae; test: In vivo effective dose against experimental infections in mice Strep. pneumoniae park when administered orally; format: functional; details: po
# [44] = tested on: Streptococcus pyogenes; test: In vivo effective dose against experimental infections in rodent caused by Streptococcus pyogenes C203 when administered sc; format: functional
# [45] = tested on: Bacteroides thetaiotaomicron; test: In vitro antimicrobial activity against anaerobic bacteria bacteroides thetaiotaomicron 1438; format: functional
# [46] = tested on: Streptococcus; test: In vitro antimicrobial activity against aerobic bacteria Streptococcus D 8043; format: functional
# [47] = tested on: Streptococcus; test: In vitro antimicrobial activity against aerobic bacteria Streptococcus B 5; format: functional
# [48] = tested on: Staphylococcus epidermidis; test: In vitro antimicrobial activity against aerobic bacteria Streptococcus epi 270; format: functional
# [49] = tested on: Staphylococcus aureus; test: In vivo effective dose against experimental infections in mice Staphylococcus aureus X1 when administered orally; format: functional; details: po
# [50] = tested on: Clostridioides difficile; test: In vitro antimicrobial activity against anaerobic bacteria Clostridium difficile 2994; format: functional
# [51] = tested on: Streptococcus pneumoniae; test: In vivo effective dose against experimental infections in mice Strep. pneumoniae park when administered sc; format: functional
smiles,measurement,setting,value
CC[C@H]1OC(=O)C[C@@H](O)[C@H](C)[C@@H](O[C@@H]2O[C@H](C)[C@@H](O)[C@H](N(C)C)[C@H]2O)[C@@H](CCN=[N+]=[N-])C[C@@H](C)C(=O)/C=C/C(C)=C/[C@@H]1CO[C@@H]1O[C@H](C)[C@@H](O)[C@@H](OC)[C@H]1OC,MIC,[1],2 µg/mL
same,MIC,[2],0.25 µg/mL
same,MIC,[3],> 128 µg/mL
same,MIC,[4],2 µg/mL
same,ED50,[5],2.8 mg/kg
same,MIC,[6],16 µg/mL
same,MIC,[7],0.12 µg/mL
same,MIC,[8],0.12 µg/mL
same,MIC,[9],0.5 µg/mL
same,MIC,[10],4 µg/mL
same,MIC,[11],8 µg/mL
same,MIC,[12],1 µg/mL
same,MIC,[13],2 µg/mL
same,MIC,[14],64 µg/mL
same,MIC,[15],2 µg/mL
same,MIC,[16],0.12 µg/mL
same,MIC,[17],16 µg/mL
same,MIC,[18],< 0.5 µg/mL
same,MIC,[19],0.25 µg/mL
same,MIC,[20],0.5 µg/mL
same,MIC,[21],8 µg/mL
same,MIC,[22],1 µg/mL
same,MIC,[23],2 µg/mL
same,MIC,[24],> 128 µg/mL
same,MIC,[25],16 µg/mL
same,MIC,[26],4 µg/mL
same,MIC,[27],1 µg/mL
same,MIC,[28],0.25 µg/mL
same,MIC,[29],2 µg/mL
same,MIC,[30],2 µg/mL
same,MIC,[31],2 µg/mL
same,MIC,[32],< 0.5 µg/mL
same,MIC,[33],32 µg/mL
same,MIC,[34],2 µg/mL
same,MIC,[35],0.25 µg/mL
same,MIC,[36],2 µg/mL
same,MIC,[37],2 µg/mL
same,MIC,[38],0.25 µg/mL
same,MIC,[39],16 µg/mL
same,MIC,[40],0.12 µg/mL
same,MIC,[41],< 0.5 µg/mL
same,MIC,[42],16 µg/mL
same,ED50,[43],> 50 mg/kg
same,ED50,[44],3.8 mg/kg
same,MIC,[45],2 µg/mL
same,MIC,[46],4 µg/mL
same,MIC,[47],8 µg/mL
same,MIC,[48],> 128 µg/mL
same,ED50,[49],18 mg/kg
same,MIC,[50],< 0.5 µg/mL
same,ED50,[51],> 20 mg/kg
